How the values were obtained:
glycosidase = settings: see U.S. Pat. No. 5,075,457; cited from earlier work
Naringinase = experiment: Glycosidase inhibition, Naringinase; type: biochemical, Penecillium decumbens; settings: 1 mg/ml
Experimental: (§1) All enzymes were purchased from Sigma, as were the appropriate p-nitrophenyl substrates. Assays were carried out in microtitre plates. Enzymes were assayed in 0.1 M citric acid/0.2M di-sodium hydrogen phosphate (McIlvaine) buffers at the optimum pH for the enzyme. All assays were carried out at 20° C. For screening assays the incubation assay consisted of 10 μl of enzyme solution, 10 μl of inhibitor solution (made up in water) and 50 μl of the appropriate 5 mM p-nitrophenyl substrate (3.57 mM final conc.) made up in McIlvaine buffer at the optimum pH for the enzyme.
(§2) The reactions were stopped with 0.4M glycine (pH 10.4) during the exponential phase of the reaction, which was determined at the beginning of the assay using blanks with water, which were incubated for a range of time periods to measure the reaction rate using 5 mM substrate solution. Endpoint absorbances were read at 405 nm with a Biorad microtitre plate reader (Benchmark). Water was substituted for the inhibitors in the blanks.

β-D-glucosidase = experiment: Glycosidase inhibition, β-D-glucosidase; type: biochemical, Almonds (Prunus sp.); settings: 1 mg/ml
Experimental: as §1, §2

Dendritic cells = experiment: Induction of IL-12 secretion in dendritic cells (ELISA); type: cell-based, BALB/c mice; settings: dendritic cells; compounds 50 μg/ml and 20 μg/ml, 24 hrs (or 48 hrs)
Experimental: BALB/c male and female mice bred and maintained at the University of Strathclyde under conventional conditions were used at 8 weeks old.
Bone marrow was obtained from the femurs of mice. The femurs were washed in 70% ethanol and placed in a clean petri dish. Dendritic cell (DC) medium (2.5% granulocyte-macrophage colony-stimulating factor (GM-CSF), 10% […] foetal calf serum, 1% L-glutamine, 1% Penicillin/Streptomycin in RPMI-1640 medium) was injected into the bone marrow of the femur by a pumping action and the cells and medium were collected. 1 ml of the cells in medium was added to a 75 cm^2 flask with 15 mls of DC medium. The flasks were then incubated at 37° C., 5% CO2 to allow DC growth and development. After 5 days an additional 10 mls of DC medium was added.
After 10 days of incubation of bone marrow with GM-CSF, the dendritic cells were harvested. This process was carried out in a tissue culture hood. The contents of the flasks were poured into centrifuge tubes to ensure collection of floating DCs. Approximately 10 mls of cooled phosphate buffered saline (PBS) was added to each empty flask, the flasks gently agitated and the contents collected. […] The collected contents of the flasks were centrifuged for 5 minutes at 200 g and the pellet resuspended in 2 mls of DC medium without GM-CSF. A cell count was then carried out.
Cells were counted using a haemocytometer. Approximately 20 μl of the resuspended cells was pipetted into the chamber of the haemocytometer, the cells were adjusted to the correct cell concentration (approx. 5×10^4, and not less than 1×10^4, per well) and then plated out for assay.
The plates were incubated overnight at 37° C. with 5% CO2 and allowed to settle (harvesting stimulates them). The next day the compounds (50 μg/ml and 20 μg/ml) and controls were added then again incubated at 37° C. with 5% CO2 for 24 hrs (or 48 hrs). Harvesting and addition of the compounds was all done in a hood. The plates were then frozen to kill the cells and once defrosted the supernatant analysed as described below.
Using an enzyme linked immunosorbent assay (ELISA) IL-12 concentration in the supernatants was measured. All reagents used in this assay were from PharMingen. A 96-well flat-bottomed ELISA plate was coated with purified rat anti-mouse IL-12 (p40/p70) MAb (Cat no. 554478) at 2 μg/ml diluted in PBS pH 9.0 at 50 μl/well. The plate was then covered in cling film and incubated at 4° C. Following incubation the plate was washed 3 times in washing buffer and dried. 200 μl of blocking buffer (10% foetal calf serum in PBS pH 7.0) was added to each well then covered in cling film and incubated at 37° C. for 45 minutes. The plate was washed 3 times and dried. Recombinant mouse Il-12 standard was added at 30 μl in duplicate wells, starting at 10 ng/ml then 5, 2.5, 1.25, 0.625, 0.31, 0.156, 0.078, 0.039, 0.020, 0.010, 0.005 ng/ml. Standards were diluted in blocking buffer. The supernatant samples were added in at 50 μl/well. The plate was then covered in cling film and incubated for 2 hours at 37° C. The plate was then washed 4 times, dried and the secondary antibody added.
Biotin labelled anti-mouse IL-12 (p40/p70) MAb (Cat no. 18482D) at 1 μg/ml (diluted in blocking buffer) was added to each well at a volume of 100 μl/well. The plate was covered in cling film and incubated at 37° C. for 1 hour. The plate was then washed 5 times, dried and the conjugate added. Streptavidin-AKP (Cat no. 13043E) at 100 μl/well was added at a dilution of 1/2000 in blocking buffer followed by incubation under cling film at 37° C. for 45 minutes.
The plate was finally washed 6 times, dried and the substrate added. pNPP (Sigma) in glycine buffer at 1 mg/ml was added at 100 μl/well. The plate was then covered in tinfoil, incubated at 37° C. and checked every 30 minutes for a colour change.
The plate was then read at 405 nm using a SPECTRAmax 190 spectrometer.

α-D-glucosidase = experiment: Glycosidase inhibition, α-D-glucosidase (Bacillus); type: biochemical, Bacillus stearothermophilus; settings: 1 mg/ml
Experimental: as §1, §2

B16-F10 tumour cells = experiment: Control of lung metastasis in mice; type: in vivo, Mice (C57/bl6); settings: 50 mg/kg s/c on days 2 and 4; lungs on day 14
Experimental: Mice (C57/bl6 under i/p ketamine anaesthesia) were challenged i/v (tail vein) with 5×10^4 B16-F10 tumour cells in a final volume of 100 μl per mouse on day 0. Test compounds (50 mg/kg in 200 μl sterile non-pyrogenic saline) were administered s/c (right flank) on days 2 and 4. On day 14 the mice were sacrifices and the lungs dissected and stained in Indian ink solution (150 ml bidistilled water, 30 ml India Ink, 4 drops NH4OH) for 10 minutes then fixed for at least 24 hr in Fakete's solution (90 ml 37% formaldehyde, 900 ml 70% EtOH and 45 ml glacial acetic acid). The metastases in the stained and fixed lungs could then be visualized, counted and photographed.

[1] = tested on: N-acetyl-β-D-glucosaminidase; experiment: Glycosidase inhibition, N-acetyl-β-D-glucosaminidase; type: biochemical, Bovine kidney; settings: 1 mg/ml
Experimental: as §1, §2

β-D-galactosidase = experiment: Glycosidase inhibition, β-D-galactosidase; type: biochemical, Bovine liver; settings: 1 mg/ml; second galactosidase line
Experimental: as §1, §2

Spleen cells = experiment: Cytokine modulation in spleen cells: splenocyte IFN-γ production; type: cell-based, BALB/c mice; settings: result in words
Experimental: BALB/c male and female mice bred and maintained at the University of Strathclyde under conventional conditions were used at varying age.
The mouse spleen was removed aseptically and placed in a sterile petri dish containing 5 mls of complete medium (RPMI, 1% L-Glutamine, 1% Penicillin/Streptomycin and 10% foetal calf serum). Cells suspensions were prepared by using the end of a syringe and grinding the spleen through a wire mesh. The cell suspension was then centrifuged at 1000 rpm for 5 minutes. To remove the erythrocytes, the cell pellet was resuspended in Boyle's solution (Tris 0.17M & Ammonium Chloride 0.16M) and centrifuged again for 5 minutes. The pellet was then washed in medium a further two times, then resuspended in 3 mls medium. A cell count was then carried out.
All spleen cell experiments were carried out in 96-well tissue culture plates. […] Unstimulated wells contained 100 μl of cells and 100 μl of medium. The stimulated wells contained 100 μl of cells plus 50 μl of LPS at 1 μg/ml or 50 μl anti-CD3 at 0.5 μg/ml and 50 μl of medium. The remaining wells contained 100 μl cells, 50 μl of MNLP compound and either 50 μl of anti-CD3 or medium alone.
The appropriate Mabs and standards were used according to the protocol described for IL-12 (described in Example 1, above).

[2] = Treatment of murine HSV-1 infection: body weight; type: in vivo, BALB/c mice; settings: Group 4: via drinking water 1 mg/ml
HSV-1 (SC16) = experiment: Treatment of murine HSV-1 infection: ear pinna thickness; type: in vivo, BALB/c mice; settings: for Ear pinna thickness (mm^−2): Group 4: via drinking water 1 mg/ml

## O[C@H]1[C@H]2[C@@H](O)CCN2C[C@H]1O [7S-epimer (6)]
glycosidase
  glycosidase inhibitory activity relative to swainsonine: much weaker inhibitory activity relative to swainsonine itself

## OC[C@@H]1[C@@H](O)[C@H](O)[C@H]2[C@@H](O)[C@@H](O)CN21 [7-epi-casuarine (11), 7-epi-casuarine]
Naringinase
  % inhibition Naringinase: −4%
β-D-glucosidase
  % inhibition glucosidase: 30%
Dendritic cells
  IL-12 RELEASE: Yes
α-D-glucosidase
  % inhibition gluc (Bacillus): 5%

## OC[C@H]1[C@@H](O)[C@H](O)[C@@H]2[C@@H](O)[C@@H](O)CN21 [Compound 22, 3,7,7a-triepi-casuarine]
Naringinase
  % inhibition Naringinase: 10%
α-D-glucosidase
  % inhibition gluc (Bacillus): 87%

## OC[C@H]1[C@@H](O)[C@H](O)[C@H]2[C@H](O)[C@@H](O)CN21 [3-epi-casuarine (14), 3-epi-casuarine]
B16-F10 tumour cells
  Metastatic morphology: Metastasis restricted to apical tip of lung
Naringinase
  % inhibition Naringinase: 21%
β-D-glucosidase
  % inhibition glucosidase: 56%
[1]
  % inhibition N-acetyl-β-gluc: −1%
Dendritic cells
  IL-12 RELEASE: Yes
α-D-glucosidase
  % inhibition gluc (Bacillus): 12%
β-D-galactosidase
  % inhibition galactosidase: 6%

## OC[C@H]1NC[C@H](O)[C@@H](O)[C@@H]1O [1-Deoxynojirimycin (DNJ) (21), 1-Deoxynojirimycin]
Spleen cells
  IFN-γ secretion/production in splenocytes: inhibited IFN-γ secretion/production in splenocytes
Dendritic cells
  IL-12 RELEASE: No

## OC[C@@H]1[C@@H](O)[C@H](O)[C@H]2[C@@H](O)CCN21 [7-epialexine (22), 7-epialexine]
Dendritic cells
  IL-12 RELEASE: No

## CC(=O)OCC(CCn1cnc2cnc(N)nc21)COC(C)=O [famciclovir, reference compound]
[2]; day 0
  Group mean weight: 15.1 g
  Weight (% change): 9%
[2]; day 1
  Group mean weight: 15.6 g
  Weight (% change): 13%
[2]; day 2
  Group mean weight: 15.8 g
  Weight (% change): 14.5%
[2]; day 3
  Group mean weight: 16.4 g
  Weight (% change): 18.8%
[2]; day 4
  Group mean weight: 16.3 g
  Weight (% change): 18.1%
[2]; day 5
  Group mean weight: 16.7 g
  Weight (% change): 21%
[2]; day 6
  Group mean weight: 17.1 g
  Weight (% change): 23.9%
[2]; day 7
  Group mean weight: 16.7 g
  Weight (% change): 21%
[2]; day 8
  Group mean weight: 17.1 g
  Weight (% change): 23.9%
[2]; day 9
  Group mean weight: 17.1 g
[2]; day 10
  Group mean weight: 17.2 g
[2]; day 11
  Group mean weight: 17.1 g
[2]; day 12
  Group mean weight: 17.2 g
[2]; day −2
  Group mean weight: 13.8 g
  Weight (% change): 0%
HSV-1 (SC16); day 0
  Ear pinna thickness (mm^−2): 0 mm^−2
HSV-1 (SC16); day 1
  Ear pinna thickness (mm^−2): 0 mm^−2
HSV-1 (SC16); day 2
  Ear pinna thickness (mm^−2): 0 mm^−2
HSV-1 (SC16); day 3
  Ear pinna thickness (mm^−2): 7 mm^−2
HSV-1 (SC16); day 4
  Ear pinna thickness (mm^−2): 7 mm^−2
HSV-1 (SC16); day 5
  Ear pinna thickness (mm^−2): 0 mm^−2
HSV-1 (SC16); day 6
  Ear pinna thickness (mm^−2): 4 mm^−2
HSV-1 (SC16); day 7
  Ear pinna thickness (mm^−2): 0 mm^−2
HSV-1 (SC16); day 8
  Ear pinna thickness (mm^−2): 2.9 mm^−2
HSV-1 (SC16); day 9
  Ear pinna thickness (mm^−2): 2.9 mm^−2
HSV-1 (SC16); day 11
  Ear pinna thickness (mm^−2): 2.9 mm^−2
HSV-1 (SC16); day −2
  Ear pinna thickness (mm^−2): 0 mm^−2
HSV-1 (SC16); result in words, casuarine at both doses (15 and 150 mg/kg i.p.), famciclovir via drinking water 1 mg/ml
  ear thickness response: almost completely negated the ear thickness response

## O[C@H]1[C@H]2[C@H](O)CCN2C[C@H]1O [(1S,2R,7R,7aR)-1,2,7-trihydroxypyrrolizidine]
glycosidase
  glycosidase inhibitory activity relative to swainsonine: much weaker inhibitory activity relative to swainsonine itself

## OC[C@H]1[C@@H](O)[C@H](O)[C@@H]2[C@@H](O)[C@H](O)CN21 [Compound 21, 3,6,7,7a-tetraepi-casuarine]
Naringinase
  % inhibition Naringinase: 5%
β-D-glucosidase
  % inhibition glucosidase: 44%
[1]
  % inhibition N-acetyl-β-gluc: 27%
α-D-glucosidase
  % inhibition gluc (Bacillus): −2%
β-D-galactosidase
  % inhibition galactosidase: 3%

## OC[C@H]1[C@@H](O)[C@H](O)[C@H]2[C@@H](O)CCN21 [3,7a-diepialexine (23), 3,7a-diepialexine]
Dendritic cells
  IL-12 RELEASE: No

## OC[C@H]1[C@@H](O)[C@H](O)[C@H]2[C@@H](O)[C@H](O)CN21 [Compound 12, 3,6,7-triepi-casuarine]
Naringinase
  % inhibition Naringinase: 0%
β-D-glucosidase
  % inhibition glucosidase: 6%
[1]
  % inhibition N-acetyl-β-gluc: 19%
α-D-glucosidase
  % inhibition gluc (Bacillus): 9%
β-D-galactosidase
  % inhibition galactosidase: 6%

## OC[C@@H]1[C@@H](O)[C@H](O)[C@@H]2[C@@H](O)CCN21 [Alexine (1), Alexine]
Dendritic cells
  IL-12 RELEASE: No

## OCC1O[C@H](O[C@H]2CN3[C@@H]([C@@H](O)[C@H](O)[C@H]3CO)[C@@H]2O)C(O)[C@@H](O)[C@@H]1O (stereo partly drawn) [casuarine-6-α-D-glucopyranose (9), casuarine-6-α-D-glucopyranose]
Dendritic cells
  IL-12 RELEASE: Yes

Source: patent US8557859B2, “Immunomodulatory compositions” (Summit (Wales) Limited, priority 2003, dated 2013)
